# Measurements taken from patent publication US20240350469A1, “TREATMENT OF LOWER RESPIRATORY TRACT INFECTION WITH TRADIPITANT” (Vanda Pharmaceuticals Inc., priority 2021, published 2024).
# Test system: severe or critical COVID-19 infection
# Assay: Randomized, double-blind, placebo-controlled study of tradipitant in hospitalized patients with COVID-19 pneumonia (interim analysis, ITT)
# Type: in vivo
# Conditions: ITT; for Hazard ratio (95% CI), responder as improvement of 2 or more points: tradipitant vs placebo, Cox model, >1 benefit for tradipitant
# [1] = Day 7, ordinal score at baseline 2, tradipitant N = 4
# [2] = Day 7, ordinal score at baseline 3, tradipitant N = 13
# [3] = Day 7, ordinal score at baseline 4, tradipitant N = 9
# [4] = Day 7, overall, tradipitant N = 28
# [5] = Day 28, ordinal score at baseline 2, tradipitant N = 4
# [6] = Day 28, ordinal score at baseline 3, tradipitant N = 13
# [7] = Day 28, ordinal score at baseline 4, tradipitant N = 9
# [8] = Day 28, overall, tradipitant N = 28
# [9] = ordinal score at baseline 2, tradipitant N = 4
# [10] = ordinal score at baseline 3, tradipitant N = 13
smiles,measurement,setting,value
O=C(c1ccccc1Cl)c1cccnc1-c1nnn(Cc2cc(C(F)(F)F)cc(C(F)(F)F)c2)c1-c1ccncc1 [Tradipitant],Median time to responder,[1],4 days
same,"Mortality, KM estimate",[1],25.0%
same,No. of responders (improvement of 2 or more points on 7 point ordinal scale),[1],3
same,"Mortality, KM estimate",[2],0.0%
same,No. of responders (improvement of 2 or more points on 7 point ordinal scale),[2],2
same,Median time to responder,[3],4 days
same,"Mortality, KM estimate",[3],25.0%
same,No. of responders (improvement of 2 or more points on 7 point ordinal scale),[3],6
same,"Mortality, KM estimate",[4],9.8%
same,No. of responders (improvement of 2 or more points on 7 point ordinal scale),[4],13
same,"Hazard ratio (95% CI), responder as improvement of 2 or more points","Day 7, overall",2.55
same,Median time to responder,[5],4 days
same,"Mortality, KM estimate",[5],50.0%
same,No. of responders (improvement of 2 or more points on 7 point ordinal scale),[5],3
same,Median time to responder,[6],27 days
same,"Mortality, KM estimate",[6],9.1%
same,No. of responders (improvement of 2 or more points on 7 point ordinal scale),[6],4
same,Median time to responder,[7],4 days
same,"Mortality, KM estimate",[7],25.0%
same,No. of responders (improvement of 2 or more points on 7 point ordinal scale),[7],7
same,Median time to responder,[8],10 days
same,"Mortality, KM estimate",[8],20.4%
same,No. of responders (improvement of 2 or more points on 7 point ordinal scale),[8],16
same,"Hazard ratio (95% CI), responder as improvement of 2 or more points","Day 28, overall",1.55
same,No. of deaths by day 7,[9],1
same,No. of deaths by day 28,[9],2
same,"Ordinal Score at Day 7 = 1 (Death), % of patients",[9],(25.0) %
same,"Ordinal Score at Day 7 = 1 (Death), no. of patients",[9],1
same,"Ordinal Score at Day 7 = 2 (Hospitalized, on invasive mechanical ventilation or ECMO), % of patients",[9],(25.0) %
same,"Ordinal Score at Day 7 = 2 (Hospitalized, on invasive mechanical ventilation or ECMO), no. of patients",[9],1
same,"Ordinal Score at Day 7 = 3 (Hospitalized, on non-invasive ventilation or high flow oxygen devices), % of patients",[9],(0.0) %
same,"Ordinal Score at Day 7 = 3 (Hospitalized, on non-invasive ventilation or high flow oxygen devices), no. of patients",[9],0
same,"Ordinal Score at Day 7 = 4 (Hospitalized, requiring supplemental oxygen), % of patients",[9],(25.0) %
same,"Ordinal Score at Day 7 = 4 (Hospitalized, requiring supplemental oxygen), no. of patients",[9],1
same,"Ordinal Score at Day 7 = 5 (Hospitalized, not requiring supplemental oxygen), % of patients",[9],(25.0) %
same,"Ordinal Score at Day 7 = 5 (Hospitalized, not requiring supplemental oxygen), no. of patients",[9],1
same,"Ordinal Score at Day 7 = 7 (Not hospitalized), % of patients",[9],(0.0) %
same,"Ordinal Score at Day 7 = 7 (Not hospitalized), no. of patients",[9],0
same,"Ordinal Score at Day 28 = 1 (Death), % of patients",[9],(50.0) %
same,"Ordinal Score at Day 28 = 1 (Death), no. of patients",[9],2
same,"Ordinal Score at Day 28 = 2 (Hospitalized, on invasive mechanical ventilation or ECMO), % of patients",[9],(0.0) %
same,"Ordinal Score at Day 28 = 2 (Hospitalized, on invasive mechanical ventilation or ECMO), no. of patients",[9],0
same,"Ordinal Score at Day 28 = 3 (Hospitalized, on non-invasive ventilation or high flow oxygen devices), % of patients",[9],(0.0) %
same,"Ordinal Score at Day 28 = 3 (Hospitalized, on non-invasive ventilation or high flow oxygen devices), no. of patients",[9],0
same,"Ordinal Score at Day 28 = 4 (Hospitalized, requiring supplemental oxygen), % of patients",[9],(0.0) %
same,"Ordinal Score at Day 28 = 4 (Hospitalized, requiring supplemental oxygen), no. of patients",[9],0
same,"Ordinal Score at Day 28 = 7 (Not hospitalized), % of patients",[9],(50.0) %
same,"Ordinal Score at Day 28 = 7 (Not hospitalized), no. of patients",[9],2
same,No. of deaths by day 7,[10],0
same,No. of deaths by day 28,[10],1
same,"Ordinal Score at Day 7 = 1 (Death), % of patients",[10],(0.0) %
same,"Ordinal Score at Day 7 = 1 (Death), no. of patients",[10],0
same,"Ordinal Score at Day 7 = 2 (Hospitalized, on invasive mechanical ventilation or ECMO), % of patients",[10],(61.5) %
same,"Ordinal Score at Day 7 = 2 (Hospitalized, on invasive mechanical ventilation or ECMO), no. of patients",[10],8
same,"Ordinal Score at Day 7 = 3 (Hospitalized, on non-invasive ventilation or high flow oxygen devices), % of patients",[10],(23.1) %
same,"Ordinal Score at Day 7 = 3 (Hospitalized, on non-invasive ventilation or high flow oxygen devices), no. of patients",[10],3
same,"Ordinal Score at Day 7 = 4 (Hospitalized, requiring supplemental oxygen), % of patients",[10],(0.0) %
same,"Ordinal Score at Day 7 = 4 (Hospitalized, requiring supplemental oxygen), no. of patients",[10],0
same,"Ordinal Score at Day 7 = 5 (Hospitalized, not requiring supplemental oxygen), % of patients",[10],(7.7) %
same,"Ordinal Score at Day 7 = 5 (Hospitalized, not requiring supplemental oxygen), no. of patients",[10],1
same,"Ordinal Score at Day 7 = 7 (Not hospitalized), % of patients",[10],(7.7) %
